Data set [1] has as its system IL-1β-stimulated PGE2 synthesis, bovine chondrocyte pellets / ARC tissues. Description: chondrocyte pellet culture model: PGE2. The format is cell-based. As to conditions: for PGE2 Inhibition: Pellet Assay. The source says: (§1) Calf articular cartilage was obtained from the knee joints of eight to twelve month old animals and was processed within twenty-four hours after sacrifice. After removal of muscle and ligament, the cartilage was kept moist using phosphate buffer solution (PBS) to prevent tissue dehydration, and was aseptically peeled off from subchondral bone with a scalpel, and the cartilage pieces were further minced into smaller pieces (˜0.3-0.5×˜0.2-0.5 cm cubes). […] Chondrocytes were then enzymatically isolated from the tissue by incubation for overnight at 37° C. with gentle agitation in 0.2% collagenase in Dulbecco's modified eagle media (DMEM). After removal of tissue debris by filtration through cell strainer and the residual collagenase by 3× wash in PBS, cells were finally resuspended at a density of 2.5×10^6 cells/ml in chondrocyte medium. A 1 ml aliquot of the cell suspension was dispensed into either a 15 ml Falcon centrifuge tube or a 96 deep-well plate and centrifuged at 2000×g for five minutes. The chondrocyte pellets were incubated at 37° C. in a humidified atmosphere of 5% CO2 for two to three weeks with a medium change every other day.
(§2) As an alternative to using calf articular cartilage, a commercial Alginate Recovered Chondrocytes (ARC) system was also used (Articular Engineering, LLC (Northbrook, Ill.)). Use of the commercial system cut down on labor and time in producing chondrocyte pellet. This system produced cartilaginous tissue in vitro using bovine chondrocytes. The first step consisted of culturing chondrocytes in alginate under conditions optimal for the formation of a cell-associated matrix (CM). The second step allowed these cells with their CM, after recovery, to rapidly form and become integrated into a solid mass of cartilage on a porous insert within two weeks. This tissue is rich in cells surrounded by a cell-associated matrix that is degraded rapidly when the cells are exposed to IL-1. ARC tissues in 3 mm punches at delivery were first dispensed into a 96 deep-well plate, one punch per well, for compound treatment. The subsequent procedures were the same as those used for the chondrocyte pellets.
(§3) Chondrocyte pellets were washed once with 1 ml of Chondrocyte Stimulation Medium and equilibrated in the same medium at room temperature for fifteen to thirty minutes. Compounds were dissolved in H2O, Ethanol or dimethyl sulfoxide (DMSO) (10^−2 M) according to suppliers' instructions and further diluted with Chondrocyte Stimulation Medium to the required concentrations. DMSO concentrations in the culture media should not exceed 1%; this concentration of DMSO has no effect on cartilage proteoglycan metabolism in response to cytokines.
(§4) The pellets were first treated with compounds at desired concentrations at 37° C. for one hour and then incubated for three to five days in the absence or presence of 10 ng/ml of IL-1β. At the end of the incubation, media and pellets were harvested and frozen for further analysis. Pellets were also fixed as needed in 4% (w/v) paraformaldehyde in PBS for histology analysis.
Prostaglandin E2 (PGE2) was measured with a STAT-Prostaglandin E2 EIA ELISA kit (Cayman Biochemicals). This assay is based on the competition between PGE2 from 50 μl samples and a PGE2-alkaline phosphatase conjugate for a limited amount of PGE2 monoclonal antibody in a reaction volume of 150 μl at room temperature for one hour. The antibody-PGE2 complex bound to a goat polyclonal anti-mouse IgG that had been previously attached to the well. After washing to remove any unbound reagents, para-nitrophenyl phosphate (pNPP) was added to the well. The product of this enzymatic reaction absorbs strongly at 412 nm. Because of the large range in response to IL-1β and other cytokines, PGE2 values were converted to log scale prior to doing t-tests.

For data set [2], the system named is IL-1β-stimulated GAG release, bovine chondrocyte pellets / ARC tissues. Description: chondrocyte pellet culture model: GAG degradation. The format is cell-based. The note with it: for GAG Release: Pellet Assay.
Source text: as §1, §2, §3
[…] At the end of the incubation, media and pellets were harvested and frozen for further analysis. Pellets were also fixed as needed in 4% (w/v) paraformaldehyde in PBS for histology analysis.
Glycosaminoglycan (GAG) levels in the culture media were determined by measuring the amount of polyanionic material reacting with 1,9-dimethylmethylene blue (DME) as detected by absorbance at 525 nm, using shark chondroitin sulfate as a standard. The DME blue dye-binding solution was prepared by dissolving 16 mg of DME blue in a solution containing 0.304% glycine, 0.23% sodium chloride (NaCl), 9.5 mM hydrochloric acid (HCl), pH=3.0 with absorbance at 525 equal to 0.31. Proteoglycans and proteoglycan metabolites in chondrocyte pellet were released by digesting the pellet with 125 μg/ml of papain in 0.1 M PBS, pH 6.0, 5 mM cysteine, 5 mM ethylene-diamine-tetra-acetic acid disodium salt (Na2EDTA) at 50° C. for overnight. Results are reported as either micrograms of GAG per milliliter or percent of total GAG released into culture medium.

Data set [3] has as its system IL-1β-stimulated NO production, bovine chondrocyte pellets / ARC tissues. The data set is described as follows: chondrocyte pellet culture model: total nitrite/nitrate (NO). The format is cell-based. As to conditions: Pellet Assay.
Source text: as §1, §2, §3, §4
Nitrate/Nitrite levels were measured using the Griess reaction (Green L. C. et al., “Analysis of Nitrate, Nitrite, and [15N]nitrate in Biological Fluids,” Anal. Biochem. 126: 131-138 (1982)) with aNitrate/Nitrite Colorimetric Assay Kit (Cayman Chemicals), the contents of which are incorporated herein by reference. The assay involved a simple two-step process. The first step involved conversion of nitrate in 50 μl of culture medium to nitrite utilizing nitrate reductase in a reaction volume of 100 μl at room temperature for two hours. The second step involved the addition of 50 μl of both Griess Reagent 1 and 2, which converted nitrite into a deep purple azo compound in ten minutes. Photometric measurement of the absorbance at 540 or 550 nm due to this azo chromophore accurately determined nitrite concentration. […]

In data set [4] the test system is injured cartilage explants. The format is cell-based. The source says:
(§5) The device comprises a vertical rail that guides a sliding weight from 0.1 kg to 3 kg directly onto a force transducer which is situated at the bottom of the device. A sphere-shaped 2 mm indenter resting on a specimen is located at the bottom of the vertical rail. The indenter is held by a stop screw. The specimen is rigidly attached to a tissue holder underneath the indenter, to avoid side movements, the specimen is rigidly attached to the tissue holder. In this manner, the force transducer transduces a force indirectly onto the specimen. Adjusting the weight of a mass and height from which the mass drops varies the magnitude of the intended impact. For example, a weight mass (e.g., […]) held by a weight holder can be released from a height of e.g., 36 cm and dropped onto the force transducer.

Data set [5] has as its system PG release, arthritic joint tissues. As to conditions: 10^−5 moles/liter or 10^−7 moles/liter; cited from earlier work.
In data set [6] the test system is injured cartilage explants, GAG release. Description: drop tower design model: GAG release. The format is cell-based, bovine.
Source text: as §5
Samples for compound evaluation were tested using either of two different methods to induce inflammatory conditions. One method utilized media conditioned from peripheral blood mononuclear cells (PBMCs) stimulated with LPS (“+LPS”) or non-inflammatory media without LPS (“−LPS”). Another method utilized the absence or presence of a cocktail of cytokines.
In the first method, bovine or human PBMCs were freshly prepared using Ficoll gradient by Lampire Biological Laboratories, Inc. PBMCs in RPMI w/10% FCS at delivery were spun down at 1500 rpm for twenty minutes and the cell pellet was washed twice with 1×PBS to wash off the residual Ficoll. The cells were then resuspended at a density of 1×10^6/ml in RPMI supplemented with 10% FCS, 1× Antibiotics-Antimycotics. The suspension was divided into two aliquots. One aliquot was stimulated with 10 μg/ml of LPS and the other was not stimulated. Both aliquots were then incubated at 37° C., 5% CO2 for twenty-four to seventy-two hours. The conditioned media with or without LPS stimulation are collected, aliquoted, and stored in −80° C. for a maximum of three months. Each conditioned medium was assessed for levels of pro-inflammatory cytokines to ensure their secretion from PBMC. A representative cytokine, IL-6, was assayed by ELISA using a Human IL-6 Quantikine kit and it was shown that the LPS-stimulated medium had at least 10 ng/ml of IL-6, while IL-6 was undetectable in the unstimulated medium.
In the second method, the explants were cultured at 37° C., 5% CO2 either in stimulated or non-stimulated conditioned medium as described above or in defined medium containing DMEM supplemented with 1% FCS, 1× insulin-transferrin-sodium selenite media supplement and Antibiotics-Antimycotics in the presence or absence of a cocktail of cytokines containing 10 ng/ml of IL-1β, 100 ng/ml of TNFα and 5 ng/ml of IFN-γ. The compounds were solubilized in H2O, Ethanol or DMSO (10^−2 M) according to suppliers' instructions and further diluted with either conditioned medium stimulated with or without LPS to the required concentrations. DMSO concentrations in the culture media never exceeded 1%. This concentration of DMSO has no effect on cartilage proteoglycan metabolism in response to cytokines. The injured and noninjured cartilage explants were treated with compound-containing medium for three to five days. The specimens were first treated with compounds at desired concentrations at 37° C. for one hour and then incubated for three to five days in the absence or presence of the cocktail of cytokines. At the end of the incubation, media and cartilage samples were harvested and frozen for further analysis.
Glycosaminoglycan (GAG) levels in the culture media or cartilage were determined by measuring the amount of polyanionic material reacting with 1,9-dimethylmethylene blue (DME) as detected by absorbance at 525 nm, using shark chondroitin sulfate as a standard. The DME blue dye-binding solution was prepared by dissolving 16 mg of DME blue in a solution containing 0.304% glycine, 0.23% NaCl, 9.5 mM HCl, pH=3.0 with A525 equaling 0.31. […]

The test system of another data set is chondrocytes. The format is cell-based.
Source text: as §1, §2, §3, §4
The LDH activity was determined colorimetrically in an enzymatic test based on the conversion of lactic acid to pyruvate in the presence of chromagenic substrate tetrazolium salt INT that was reduced to formazan.

Where only a bound is given, the exact number is not on record here.

By inhibition is commonly meant the change of the read-out against control, counted positive when it falls. Low readings indicate little suppression, high ones strong suppression.

On to `CC1(C)O[C@@H]2[C@@H](CO[C@@]3(COS(N)(=O)=O)OC(C)(C)O[C@@H]23)O1` [Topramax, reference compound], for which, in data set [1], the “PGE2 Inhibition” value is recorded as “No effect”. In addition, in data set [2], the “GAG Release” value is “No effect”. The “NO Inhibition” value in data set [3] is on record as “No effect”.
In the case of `O=C(O)c1cc(O)c2c(c1)C(=O)c1cccc(O)c1C2=O` [Rhein, reference compound], the “PGE2 synthesis” value in data set [1] (diacerein at 5.4 μM, rhein at 0.35 μM, 10 ng/ml IL-1β) is “no effect”. The “lowest concentration inhibiting proteoglycan degradation” value in data set [2] (10 ng/ml IL-1β, five days) is no more than 0.035 µM. In addition, in data set [4], the “cytotoxicity (LDH, words)” value is “tolerant”.
As to `Cc1ccc(C(=O)c2ccc(CC(=O)O)n2C)cc1` [Tolmetin, reference compound], the “GAG Release” value in data set [2] is recorded as “No effect”. For the same compound, the “NO Inhibition” value in data set [3] is “No effect”.
As to `O=C(O)Cc1ccccc1Nc1c(Cl)cccc1Cl` [diclofenac], in data set [5], the “PG release from arthritic joint tissues” value was “significantly inhibited”.
Turning to Madecassoside, in data set [1], the “PGE2 Inhibition” value is reported as “No effect”. The “GAG Release” value in data set [2] is “No effect”. In data set [3], the “NO Inhibition” value is on record as “No effect”.
Take `CN1C(C(=O)Nc2ccccn2)=C(O)c2ccccc2S1(=O)=O` [Piroxicam, reference compound]: the “GAG Release” value in data set [2] is “No effect”. Also, the “GAG, inhibition of degradation/release” value in data set [6] (injured cartilage explants, inflammatory conditions) is “No effect”.
The compound `CO[C@H]1C[C@@H]2CC[C@@H](C)[C@@](O)(O2)C(=O)C(=O)N2CCCC[C@H]2C(=O)O[C@H]([C@H](C)C[C@@H]2CC[C@@H](O)[C@H](OC)C2)CC(=O)[C@H](C)/C=C(\C)[C@@H](O)[C@@H](OC)C(=O)[C@H](C)C[C@H](C)/C=C/C=C/C=C/1C` [Rapamycin, reference compound] came in with an inhibition at 0.01 µM in data set [6] (Bos taurus, at 0.01 μM) of 84%. Further, in data set [4], the “cytotoxicity (LDH, words)” value was “little cytotoxicity”. The “cytotoxicity to chondrocytes (LDH, words)” value with chondrocytes is recorded as “little toxicity”.
For the compound `COc1ccc2c(c1)c(CC(=O)O)c(C)n2C(=O)c1ccc(Cl)cc1` [indomethacin], in data set [5], the “PG release from arthritic joint tissues” value is “significantly inhibited”.
Turning to `CC(C(=O)O)c1ccc(C(=O)c2ccccc2)s1` (stereo not shown) [Tiaprofenic Acid, reference compound], the “GAG Release” value in data set [2] was “No effect”.

The values are drawn from patent US8986696B2, “Trans-capsular administration of p38 map kinase inhibitors into orthopedic joints” (DePuy Mitek, Inc., priority 2007, dated 2015).
